# Test results published in patent US10766902B2, “Wee-1 inhibiting pyrazolopyrimidinone compounds” (ALMAC DISCOVERY LIMITED, priority 2016, dated 2020).
# Target: Wee-1 kinase (Homo sapiens (Human), UniProt P30291)
# Assay: Measurement of Wee-1 kinase activity (ADP-Glo luminescence)
# Format: biochemical
# Settings: read-out: Wee1 IC50
# Method: Method 1: Measurement of Wee-1 Kinase Activity
# In the measurement of Wee-1 activity, a commercial peptide Poly(Lys Tyr(4:1)) hydrobromide was purchased from Sigma Aldrich and used as the substrate. Activated Wee-1 kinase was purchased from Invitrogen (PV3817) and an ADP-Glo luminescent kit was purchased from Promega.
# All reactions took place in […] volumes in reaction buffer containing 40 mM Tris-HCl and 20 mM magnesium chloride, supplemented with 0.1 mg/mL bovine serum albumin and 2 mM DTT. Compounds were serially diluted in buffer and 5 μL of each concentration pipetted into a white 384 well plate (Sigma Aldrich M6186). A 5 μL aliquot of the Wee-1 enzyme was added to each well and the plate centrifuged for 1 min to ensure mixing of the enzyme and inhibitor.
# The plate was incubated at room temperature for 30 minutes before the addition of 2.0 μg/mL of substrate and 30 μM ATP in a 5 μL aliquot. The plate was centrifuged for one minute and incubated for 1 h at RT.
# 15 μL of ADP-Glo stop reagent was added to each well to quench the reaction and deplete unconverted ATP. The plate was incubated for a further 40 min in the dark at RT.
# 30 μL of ADP-Glo kinase detection reagent was added to each well, converting ADP to ATP, catalysing the generation of luciferin by luciferase. The plate was shaken for 1 min, and incubated in the dark for an additional hour.
# Luminescence from each well was detected using the Biotek Synergy4 HD plate reader and the percentage inhibition of kinase activity calculated for each inhibitor tested. Positive (kinase only) and negative (no kinase) controls were added to each plate to ensure specific interaction of kinase and inhibitor. The IC50 concentration for each inhibitor was calculated by plotting the percentage kinase inhibition against concentration of inhibitor and the curve generated by non-linear regression fitting.
# Chain of Wee-1 kinase (P30291 whole entry): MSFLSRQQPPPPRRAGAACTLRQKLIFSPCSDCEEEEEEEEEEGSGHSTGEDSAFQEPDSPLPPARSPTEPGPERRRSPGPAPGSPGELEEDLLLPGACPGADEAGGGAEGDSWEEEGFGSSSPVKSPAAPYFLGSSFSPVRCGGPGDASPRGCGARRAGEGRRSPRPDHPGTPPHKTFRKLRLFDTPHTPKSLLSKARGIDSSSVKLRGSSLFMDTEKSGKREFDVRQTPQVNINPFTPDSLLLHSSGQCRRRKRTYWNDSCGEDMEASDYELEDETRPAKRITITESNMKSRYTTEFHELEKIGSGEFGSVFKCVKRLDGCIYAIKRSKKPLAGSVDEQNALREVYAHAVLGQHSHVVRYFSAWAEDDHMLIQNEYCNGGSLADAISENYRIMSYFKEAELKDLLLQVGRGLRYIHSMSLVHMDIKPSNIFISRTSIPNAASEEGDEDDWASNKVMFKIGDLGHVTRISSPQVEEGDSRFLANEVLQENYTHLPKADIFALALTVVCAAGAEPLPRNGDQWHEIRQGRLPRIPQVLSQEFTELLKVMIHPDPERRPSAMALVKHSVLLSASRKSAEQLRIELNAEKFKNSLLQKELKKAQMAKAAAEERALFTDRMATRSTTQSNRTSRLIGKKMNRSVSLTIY
row,SMILES,IC50
1,"CC(C)n1c(=O)c2cnc(Nc3ccc(Cl)cc3)nc2n1-c1cccc(N=S(C)(C)=O)n1 [Example 61, 6-[(4-Chlorophenyl)amino]-1-(6-{[dimethyl(oxo)-λ^6-sulfanylidene]amino}pyridin-2-yl)-2-(propan-2-yl)-1H,2H,3H-pyrazolo[3,4-d]pyrimidin-3-one]",0.6 nM
2,"C=CCn1c(=O)c2cnc(Nc3ccc(Cl)cc3)nc2n1-c1cccc(N=S(C)(C)=O)n1 [Example 62, 6-[(4-Chlorophenyl)amino]-1-(6-{[dimethyl(oxo)-λ^6-sulfanylidene]amino}pyridin-2-yl)-2-(prop-2-en-1-yl)-1H,2H,3H-pyrazolo[3,4-d]pyrimidin-3-one]",0.3 nM
3,"C=CCn1c(=O)c2cnc(Nc3ccc(N4C[C@@H]5C[C@H]4CO5)cc3)nc2n1-c1cccc(N=S(C)(C)=O)n1 [Example 68, 1-(6-{[Dimethyl(oxo)-λ^6-sulfanylidene]amino}pyridin-2-yl)-6-({4-[(1S,4S)-2-oxa-5-azabicyclo[2.2.1]heptan-5-yl]phenyl}amino)-2-(prop-2-en-1-yl)-1H,2H,3H-pyrazolo[3,4-d]pyrimidin-3-one]",0.3 nM
4,"C=CCn1c(=O)c2cnc(Nc3ccc(F)nc3)nc2n1-c1cccc(N=S(C)(C)=O)n1 [Example 70, 1-(6-{[Dimethyl(oxo)-λ^6-sulfanylidene]amino}pyridin-2-yl)-6-[(6-fluoropyridin-3-yl)amino]-2-(prop-2-en-1-yl)-1H,2H,3H-pyrazolo[3,4-d]pyrimidin-3-one]",2.5 nM
5,"CC(C)n1c(=O)c2cnc(Nc3ccc(C(F)(F)F)cc3)nc2n1-c1cccc(N=S(C)(C)=O)n1 [Example 72, 1-(6-{[Dimethyl(oxo)-λ^6-sulfanylidene]amino}pyridin-2-yl)-2-(propan-2-yl)-6-{[4-(trifluoromethyl)phenyl]amino}-1H,2H,3H-pyrazolo[3,4-d]pyrimidin-3-one]",19 nM
6,"C=CCn1c(=O)c2cnc(Nc3ccc(F)cc3)nc2n1-c1cncc(N=S(C)(C)=O)n1 [Example 75, 1-(6-{[Dimethyl(oxo)-λ^6-sulfanylidene]amino}pyrazin-2-yl)-6-[(4-fluorophenyl)amino]-2-(prop-2-en-1-yl)-1H,2H,3H-pyrazolo[3,4-d]pyrimidin-3-one]",1.4 nM
7,"C=CCn1c(=O)c2cnc(Nc3cccnc3)nc2n1-c1cccc(N=S(C)(C)=O)n1 [Example 77, 1-(6-{[Dimethyl(oxo)-λ^6-sulfanylidene]amino}pyridin-2-yl)-2-(prop-2-en-1-yl)-6-[(pyridin-3-yl)amino]-1H,2H,3H-pyrazolo[3,4-d]pyrimidin-3-one]",1000 nM
8,"C=CCn1c(=O)c2cnc(Nc3cnn(C)c3)nc2n1-c1cccc(N=S2(=O)CCCC2)n1 [Example 78, 6-[(1-Methyl-1H-pyrazol-4-yl)amino]-1-{6-[(1-oxo-1λ^6-thiolan-1-ylidene)amino]pyridin-2-yl}-2-(prop-2-en-1-yl)-1H,2H,3H-pyrazolo[3,4-d]pyrimidin-3-one]",2.5 nM
9,"C=CCn1c(=O)c2cnc(Nc3cnn(C(C)C)c3)nc2n1-c1cccc(N=S(C)(C)=O)n1 [Example 80, 1-(6-{[Dimethyl(oxo)-λ^6-sulfanylidene]amino}pyridin-2-yl)-2-(prop-2-en-1-yl)-6-{[1-(propan-2-yl)-1H-pyrazol-4-yl]amino}-1H,2H,3H-pyrazolo[3,4-d]pyrimidin-3-one]",0.3 nM
10,"C=CCn1c(=O)c2cnc(Nc3ccc(F)c(OC)c3)nc2n1-c1cccc(N=S(C)(C)=O)n1 [Example 82, 1-(6-{[Dimethyl(oxo)-λ^6-sulfanylidene]amino}pyridin-2-yl)-6-[(4-fluoro-3-methoxyphenyl)amino]-2-(prop-2-en-1-yl)-1H,2H,3H-pyrazolo[3,4-d]pyrimidin-3-one]",0.4 nM
11,"C=CCn1c(=O)c2cnc(Nc3cc(F)cc(F)c3)nc2n1-c1cccc(N=S(C)(C)=O)n1 [Example 84, 6-[(3,5-Difluorophenyl)amino]-1-(6-{[dimethyl(oxo)-λ^6-sulfanylidene]amino}pyridin-2-yl)-2-(prop-2-en-1-yl)-1H,2H,3H-pyrazolo[3,4-d]pyrimidin-3-one]",1 nM
12,"C=CCn1c(=O)c2cnc(Nc3ccc(C4CCN(C5CCC5)CC4)c(C)c3)nc2n1-c1cccc(N=S(C)(C)=O)n1 [Example 88, 6-{[4-(1-Cyclobutylpiperidin-4-yl)-3-methylphenyl]amino}-1-(6-{[dimethyl(oxo)-λ^6-sulfanylidene]amino}pyridin-2-yl)-2-(prop-2-en-1-yl)-1H,2H,3H-pyrazolo[3,4-d]pyrimidin-3-one]",0.4 nM
13,"C=CCn1c(=O)c2cnc(Nc3ccc(N(C)CCOC)cc3)nc2n1-c1cccc(N=S(C)(C)=O)n1 [Example 89, 1-(6-{[Dimethyl(oxo)-λ^6-sulfanylidene]amino}pyridin-2-yl)-6-({4-[(2-methoxyethyl)(methyl)amino]phenyl}amino)-2-(prop-2-en-1-yl)-1H,2H,3H-pyrazolo[3,4-d]pyrimidin-3-one]",0.2 nM
14,"C=CCn1c(=O)c2cnc(Nc3ccc(N4CCC4)cc3)nc2n1-c1cccc(N=S(C)(C)=O)n1 [Example 90, 6-{[4-(Azetidin-1-yl)phenyl]amino}-1-(6-{[dimethyl(oxo)-λ^6-sulfanylidene]amino}pyridin-2-yl)-2-(prop-2-en-1-yl)-1H,2H,3H-pyrazolo[3,4-d]pyrimidin-3-one]",0.2 nM

# The remaining compounds from weak to strong by IC50, led by results:
row,IC50,SMILES
1,1000 nM,"C=CCn1c(=O)c2cnc(NC34CC(C3)C4)nc2n1-c1cccc(N=S(C)(C)=O)n1 [Example 63, 6-({Bicyclo[1.1.1]pentan-1-yl}amino)-1-(6-{[dimethyl(oxo)-λ^6-sulfanylidene]amino}pyridin-2-yl)-2-(prop-2-en-1-yl)-1H,2H,3H-pyrazolo[3,4-d]pyrimidin-3-one]"
2,68 nM,"CC(C)n1c(=O)c2cnc(Nc3ccc(F)cc3F)nc2n1-c1cccc(N=S(C)(C)=O)n1 [Example 65, 6-[(2,4-Difluorophenyl)amino]-1-(6-{[dimethyl(oxo)-λ^6-sulfanylidene]amino}pyridin-2-yl)-2-(propan-2-yl)-1H,2H,3H-pyrazolo[3,4-d]pyrimidin-3-one]"
3,66 nM,"CC(C)n1c(=O)c2cnc(Nc3cccc(C(F)(F)F)c3)nc2n1-c1cccc(N=S(C)(C)=O)n1 [Example 73, 1-(6-{[Dimethyl(oxo)-λ^6-sulfanylidene]amino}pyridin-2-yl)-2-(propan-2-yl)-6-{[3-(trifluoromethyl)phenyl]amino}-1H,2H,3H-pyrazolo[3,4-d]pyrimidin-3-one]"
4,46 nM,"C=CCn1c(=O)c2cnc(Nc3cnn(C)c3)nc2n1-c1cccc(N=[S@@](C)(=O)c2ccccc2)n1 [Example 79, 1-(6-{[(S)-Methyl(oxo)phenyl-λ^6-sulfanylidene]amino}pyridin-2-yl)-6-[(1-methyl-1H-pyrazol-4-yl)amino]-2-(prop-2-en-1-yl)-1H,2H,3H-pyrazolo[3,4-d]pyrimidin-3-one]"
5,26 nM,"CC(C)n1c(=O)c2cnc(Nc3ccc(C#N)cc3)nc2n1-c1cccc(N=S(C)(C)=O)n1 [Example 71, 4-{[1-(6-{[Dimethyl(oxo)-λ^6-sulfanylidene]amino}pyridin-2-yl)-3-oxo-2-(propan-2-yl)-1H,2H,3H-pyrazolo[3,4-d]pyrimidin-6-yl]amino}benzonitrile]"
6,1.6 nM,"C=CCn1c(=O)c2cnc(Nc3ccc(C(C)(C)C)cc3)nc2n1-c1cccc(N=S(C)(C)=O)n1 [Example 64, 6-[(4-tert-Butylphenyl)amino]-1-(6-{[dimethyl(oxo)-λ^6-sulfanylidene]amino}pyridin-2-yl)-2-(prop-2-en-1-yl)-1H,2H,3H-pyrazolo[3,4-d]pyrimidin-3-one]"
7,1.3 nM,"C=CCn1c(=O)c2cnc(Nc3ccc(C(F)(F)F)nc3)nc2n1-c1cccc(N=S(C)(C)=O)n1 [Example 81, 1-(6-{[Dimethyl(oxo)-λ^6-sulfanylidene]amino}pyridin-2-yl)-2-(prop-2-en-1-yl)-6-{[6-(trifluoromethyl)pyridin-3-yl]amino}-1H,2H,3H-pyrazolo[3,4-d]pyrimidin-3-one]"
8,0.6 nM,"C=CCn1c(=O)c2cnc(Nc3cnn(CC(F)(F)F)c3)nc2n1-c1cccc(N=S(C)(C)=O)n1 [Example 85, 1-(6-{[Dimethyl(oxo)-λ^6-sulfanylidene]amino}pyridin-2-yl)-2-(prop-2-en-1-yl)-6-{[1-(2,2,2-trifluoroethyl)-1H-pyrazol-4-yl]amino}-1H,2H,3H-pyrazolo[3,4-d]pyrimidin-3-one]"
9,0.5 nM,"C=CCn1c(=O)c2cnc(Nc3ccc(F)c(F)c3)nc2n1-c1cccc(N=S(C)(C)=O)n1 [Example 66, 6-[(3,4-Difluorophenyl)amino]-1-(6-{[dimethyl(oxo)-λ^6-sulfanylidene]amino}pyridin-2-yl)-2-(prop-2-en-1-yl)-1H,2H,3H-pyrazolo[3,4-d]pyrimidin-3-one]"
10,0.3 nM,"C=CCn1c(=O)c2cnc(Nc3ccc(N4CCO[C@H](COC)C4)cc3)nc2n1-c1cncc(N=S(C)(C)=O)n1 [Example 74, 1-(6-{[Dimethyl(oxo)-λ^6-sulfanylidene]amino}pyrazin-2-yl)-6-({4-[(2S)-2-(methoxymethyl)morpholin-4-yl]phenyl}amino)-2-(prop-2-en-1-yl)-1H,2H,3H-pyrazolo[3,4-d]pyrimidin-3-one]"
